Test results: article PMC3411353 (Tetrahedron letters, 2010)
Square brackets hold non-standard residues; d marks the D form. Peptide text beside a SMILES is read from it.

Columns and labels:
KOR [1] = details: after a single injection, result in words; ref [1a]; cited from earlier work
KOR [2] = target: KOR (Mus musculus, UniProt P33534); assay: competition radioligand-binding assay, KOR, [^3H]U69,593, mouse brain membranes

SMILES | duration of antagonist activity (KOR [1]) | Ki (KOR [2])
NC(N)=Nc1ccc2[nH]c3c(c2c1)C[C@@]1(O)[C@H]2Cc4ccc(O)c5c4[C@@]1(CCN2CC1CC1)[C@H]3O5 [GNTI, 5′-guanidinonaltrindole] | lasting for weeks to more than a month | –
CC(C)[C@@H](CN1CC[C@@](C)(c2cccc(O)c2)[C@@H](C)C1)NC(=O)[C@H]1Cc2ccc(O)cc2CN1 [JDTic, (3R)-7-hydroxy-N-[(1S)-1-[[(3R,4R)-4-(3-hydroxyphenyl)-3,4-dimethyl-1-piperidinyl]methyl]-2-methylpropyl]-1,2,3,4-tetrahydro-3-isoquinolinecarboxamide] | lasting for weeks to more than a month | –
O=C1N[C@@H](Cc2ccccc2)C(=O)N2CCC[C@@H]2C(=O)N[C@@H](Cc2ccccc2)C(=O)N[C@H]1Cc1c[nH]c2ccccc12 [L-Trp isomer, cyclo[Phe-D-Pro-Phe-Trp]] (cyclo(FWF[dP])) | – | 21.2 ± 5.6 nM
Oc1ccc2c3c1O[C@H]1c4[nH]c5c(c4C[C@@]4(O)[C@@H](C2)N(CC2CC2)CC[C@]314)C[C@@]1(O)[C@H]2Cc3ccc(O)c4c3[C@@]1(CCN2CC1CC1)[C@H]5O4 [norBNI, norbinaltorphimine] | lasting for weeks to more than a month | –
